The text below walks through data of paper PMC11554305, “Functional identification of soluble uric acid as an endogenous inhibitor of CD38” (eLife, 2024).

The term IC50 denotes the point on the concentration scale where inhibition reaches its midpoint. Usually Ki stands for a dissociation constant, usually derived from enzyme kinetics or from competition with a known ligand. Read a low Ki as higher affinity.

Format in all cases: biochemical
Assay [1] concerns the target T1, murine CD38 (Mus musculus, UniProt P56528).
T1 construct: from tissue; host or cells: WT ICR mouse tissues (brain, liver, lung, heart, kidney, spleen, ileum, skeletal muscle)
T1 sequence (P56528 1-304): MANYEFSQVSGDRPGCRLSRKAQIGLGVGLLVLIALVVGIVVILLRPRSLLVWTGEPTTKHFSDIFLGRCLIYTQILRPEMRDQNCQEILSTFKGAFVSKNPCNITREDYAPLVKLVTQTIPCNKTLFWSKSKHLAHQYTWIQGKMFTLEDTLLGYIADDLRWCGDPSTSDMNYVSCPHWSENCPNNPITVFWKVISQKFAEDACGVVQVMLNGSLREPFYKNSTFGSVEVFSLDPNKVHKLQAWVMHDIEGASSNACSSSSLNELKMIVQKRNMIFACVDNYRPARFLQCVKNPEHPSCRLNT
The assay can be described thus: CD38 hydrolase activity in tissues from WT mice. The following applies: for Ki: WT mice, Figure 1E. Here is the method:
(§1) The hydrolase activity of CD38 was measured according to a previous report ([de Oliveira et al., 2018]) with minor modifications. CD38 hydrolase activity was measured using 50 μM ε-NAD^+ as a substrate in hydrolase reaction buffer (250 mM sucrose, 40 mM Tris-HCl, pH 7.4). Briefly, cells or tissues were directly homogenized in blank reaction buffer on ice, and recombinant hCD38 was diluted in blank reaction buffer for subsequent assays. The tissue homogenates were centrifuged to collect the supernatant for enzyme assays. The loading volume of enzyme was 4–30 μL, the total volume of the reaction system was 3 mL. To detect enzyme inhibition, except when specified, the ligands were directly dissolved in hydrolase reaction buffer before pH adjustment, after which, the pH was immediately adjusted to 7.4. All reaction buffers, with or without ligands, were freshly prepared before each assay. For measurement of hydrolase activity, 3 mL reaction buffer containing enzyme, ε-NAD^+, and ligands at indicated concentrations was maintained at 37°C with constant stirring.
(§2) The reaction buffer for hydrolase or cyclase assays was excited at 300 nm, and fluorescence emission was measured every second at 410 nm by Shimazu RF-6000 spectrofluorometer. Hydrolase or cyclase activity was calculated from the linear portion of the time course by fitting a linear function to the data points recorded within 5 min.

In assay [2] the target is T1, murine CD38. The assay can be described thus: CD38 cyclase activity in tissues from WT mice. The note with it: for Ki: WT mice, Figure 1E. The protocol:
(§3) The cyclase activity of CD38 was measured as previously described ([Higashida et al., 1999]; [Jin et al., 2007]). CD38 cyclase activity was measured using 60 μM NGD as a substrate in cyclase reaction buffer (100 mM KCl, 10 μM CaCl2, and 50 mM Tris-HCl, pH 6.6). Tissues were cut into pieces and suspended in the buffer (5 mM MgCl2, 10 mM Tris-HCl, pH 7.3) at 4°C for 30 min. Then, the suspension was homogenized on ice, and the supernatant was collected after centrifugation. To collect the crude membrane fractions, the supernatant was centrifuged at 105,000×g for 30 min. The final pellet was resuspended in 10 mM Tris-HCl solution (pH 6.6) for cyclase assay. Homogenates of THP-1 or A549 cells, and recombinant hCD38 were used directly for cyclase assays. The loading volume of enzyme was 4–20 μL, the total volume of reaction system was 3 mL. To detect enzyme inhibition, except when specified, the ligands were directly dissolved in cyclase reaction buffer before pH adjustment, after which, the pH was immediately adjusted to 6.6. All reaction buffers, with or without ligands, were freshly prepared before each assay. For measurement of cyclase activity, 3 mL reaction buffer containing enzyme, NGD, and ligands at indicated concentrations was maintained at 37°C with constant stirring.
as §2

Assay [3] addresses CD38. Briefly: Hydrolase and cyclase activities of human and murine CD38. The protocol: as §1, §3, §2
Guanosine was dissolved in DMSO and diluted in the reaction buffer for subsequent assays.
For reversibility test, recombinant hCD38 was pre-incubated for 30 min in four conditions: (1) control reaction buffer; (2) in the presence of 100 μM substrate (ε-NAD^+ or NGD); (3) 500 μM sUA; (4) both substrate and sUA. Subsequently, the enzyme was diluted 100-fold in reaction buffer in the presence or absence of 500 μM sUA for activity assays using ε-NAD^+ or NGD. Naïve THP-1 and A549 cells were incubated with RPMI-1640 medium in the presence or absence of 500 μM sUA for 2 hr. The cells were collected and homogenized in the reaction buffer on ice with or without 500 μM sUA, samples were then diluted 100-fold in reaction buffer with or without 500 μM sUA for enzyme assay. Control group was not treated with sUA in all steps; sUA group was treated with sUA in each step; sUA release group was treated with sUA prior to dilution in sUA-free buffer for enzyme assays.

The mark [4] stands for this setting: lung tissues from WT mice, OA 0–5 mM.

In the case of `O=C(O)c1nc(=O)[nH]c(=O)[nH]1` [OA, oxonic acid, reference compound], the values for the half-inhibitory concentration (IC50) in assay [1] (setting [4]) and in assay [2] (setting [4]) were 2200 µM and 4470 µM, respectively.

Regarding `O=c1[nH]c(=O)c2[nH]c(=O)[nH]c2[nH]1` [sUA, uric acid], the Ki came to 83.5 µM in assay [1] (Brain); 80.6 µM in assay [1] (Heart); 79.9 µM in assay [1] (Ileum); 84.7 µM in assay [1] (Kidney); 77.3 µM in assay [1] (Liver); 82.5 µM in assay [1] (Lung). Also, the inhibitory constant (Ki) in assay [1] (Skeletal muscle) amounted to 83 µM; in assay [1] (Spleen), 70.5 µM; in assay [2] (Brain), 71.1 µM; in assay [2] (Heart) it was 70.9 µM; in assay [2] (Ileum), 72.1 µM; in assay [2] (Kidney), 78.2 µM. Further, the Ki in assay [2] (Liver) is 76.7 µM; in assay [2] (Lung), 77 µM; in assay [2] (Skeletal muscle) it was 93.3 µM; in assay [2] (Spleen), 78.1 µM; in assay [3] (span over all enzyme sources) it was 57.1 to 93.3 µM.

With `O=c1[nH]cnc2c1ncn2[C@@H]1O[C@H](CO)[C@@H](O)[C@H]1O` [Inosine, inosine, reference compound], in assay [3] (sUA precursors and metabolite, above physiological levels, Figure 2B, C and supplement 1A–C), the “Effect on hydrolase and cyclase activities of human and murine CD38” value was “hardly inhibited”.
